Reference: Sander's compilation of Henry's law constants
Blank lines part the entries; values can stand above or below the compound they belong to.

Key:
[1] = Henry solubility constant Hcp at 298.15 K (mol/(m3 Pa))
[2] = Henry solubility constant Hcp at 294 K (mol/(m3 Pa))
[3] = Henry solubility constant Hcp at 284 K (mol/(m3 Pa)); conditions: reference: George et al. (1994b)
[4] = Henry solubility constant Hcp at 278 K (mol/(m3 Pa)); conditions: reference: De Bruyn et al. (1995a)
[5] = Henry solubility constant Hcp at 297 K (mol/(m3 Pa))
[6] = Henry solubility constant Hcp at 288 K (mol/(m3 Pa)); conditions: reference: Komiyama and Inoue (1980)
[7] = Henry solubility constant Hcp at 308 K (mol/(m3 Pa)); conditions: reference: Guo and Brimblecombe (2007)
[8] = Henry solubility constant Hcp at 283 K (mol/(m3 Pa)); conditions: reference: Pearson and McConnell (1975)
[9] = Henry solubility constant Hcp at 293 K (mol/(m3 Pa))
[10] = Henry solubility constant Hcp at 291 K (mol/(m3 Pa)); conditions: reference: Schöne (1873)
[11] = Henry solubility constant Hcp at 290 K (mol/(m3 Pa)); conditions: reference: Thomas et al. (2006)
[12] = Henry solubility constant Hcp at 273 K (mol/(m3 Pa)); conditions: reference: Razumovskii and Zaikov (1971)
[13] = Henry solubility constant Hcp at 310 K (mol/(m3 Pa)); conditions: reference: Power and Stegall (1970)
[14] = Henry solubility constant Hcp at 301 K (mol/(m3 Pa)); conditions: reference: Nelson and Hoff (1968)
[15] = reference: Murphy et al. (1983a)

Henry solubility constant Hcp [1, 15]: 0.049 | Henry solubility constant Hcp at 294 K ([2]; reference: Brownawell (1986)): 0.11
SMILES: Clc1ccc(Cl)c(-c2ccc(Cl)c(Cl)c2)c1 [2,3',4',5-tetrachlorobiphenyl]

SMILES: O=C(Cl)C(F)(F)F [trifluoroacetylchloride]
Henry solubility constant Hcp at 284 K [3]: 0.02 | Henry solubility constant Hcp ([1]; reference: Mirabel et al. (1996)): 0.02 | Henry solubility constant Hcp at 278 K [4]: 0.0027

SMILES: [N]=O [nitrogen monoxide]
Henry solubility constant Hcp ([1]; reference: Komiyama and Inoue (1978)): 1.9e-05 | Henry solubility constant Hcp ([1]; reference: Winkler (1901)): 1.9e-05 | Henry solubility constant Hcp at 297 K ([5]; reference: Zafiriou and McFarland (1980)): 1.3e-05 | Henry solubility constant Hcp at 288 K [6]: 2.3e-05

Henry solubility constant Hcp at 308 K [7]: 210
SMILES: O=[N+]([O-])c1ccc(O)cc1 [4-nitrophenol]

SMILES: C=CCl [chloroethene]
Henry solubility constant Hcp at 283 K [8]: 8.5e-06 | Henry solubility constant Hcp ([1]; reference: Chen et al. (2012)): 0.00041 | Henry solubility constant Hcp ([1]; reference: Gossett (1987)): 0.00037

SMILES: O=[O+][O-] [ozone]
Henry solubility constant Hcp at 293 K ([9]; reference: Gurol and Singer (1982)): 0.00017 | Henry solubility constant Hcp at 293 K ([9]; reference: Levanov et al. (2008)): 0.00011 | Henry solubility constant Hcp at 291 K [10]: 0.00012 | Henry solubility constant Hcp ([1]; reference: Andreozzi et al. (1996)): 9.2e-05 | Henry solubility constant Hcp ([1]; reference: Briner and Perrottet (1939)): 0.00013 | Henry solubility constant Hcp ([1]; reference: Fischer and Tropsch (1917)): 0.0002 | Henry solubility constant Hcp ([1]; reference: Gershenzon et al. (2001)): 0.00011 | Henry solubility constant Hcp ([1]; reference: Kilpatrick et al. (1956)): 9.9e-05 | Henry solubility constant Hcp ([1]; reference: Kosak-Channing and Helz (1983)): 0.00011 | Henry solubility constant Hcp ([1]; reference: Luther (1905)): 8e-05 | Henry solubility constant Hcp ([1]; reference: Mailfert (1894)): 0.00012 | Henry solubility constant Hcp ([1]; reference: Rischbieter et al. (2000)): 9.9e-05 | Henry solubility constant Hcp ([1]; reference: Sotelo et al. (1989)): 0.00012 | Henry solubility constant Hcp ([1]; reference: Stumm (1958)): 0.00012

SMILES: Clc1ccc(-c2ccccc2Cl)cc1 [2,4'-dichlorobiphenyl]
Henry solubility constant Hcp ([1]; reference: Charles and Destaillats (2005)): 0.023 | Henry solubility constant Hcp [1, 15]: 0.045 | Henry solubility constant Hcp at 294 K ([2]; reference: Brownawell (1986)): 0.057

SMILES: Cl/C=C\CCl [cis-1,3-dichloropropene]
Henry solubility constant Hcp ([1]; reference: Leistra (1970)): 0.005 | Henry solubility constant Hcp at 290 K [11]: 0.01

SMILES: O=[N+]([O-])c1cccc(O)c1 [3-nitrophenol]
Henry solubility constant Hcp at 308 K [7]: 160

SMILES: O=O [oxygen]
Henry solubility constant Hcp at 293 K ([9]; reference: da Silva et al. (1980)): 1.2e-05 | Henry solubility constant Hcp ([1]; reference: Benson et al. (1979)): 1.3e-05 | Henry solubility constant Hcp ([1]; reference: Bohr and Bock (1891)): 1.3e-05 | Henry solubility constant Hcp ([1]; reference: Bunsen (1855a)): 1.2e-05 | Henry solubility constant Hcp ([1]; reference: Carpenter (1966)): 1.2e-05 | Henry solubility constant Hcp ([1]; reference: Cosgrove and Walkley (1981)): 1.3e-05 | Henry solubility constant Hcp ([1]; reference: Cramer (1980)): 1.3e-05 | Henry solubility constant Hcp ([1]; reference: Fox (1909)): 1.3e-05 | Henry solubility constant Hcp ([1]; reference: Geffcken (1904)): 1.2e-05 | Henry solubility constant Hcp ([1]; reference: Millero et al. (2002a)): 1.2e-05 | Henry solubility constant Hcp ([1]; reference: Millero et al. (2002b)): 1.2e-05 | Henry solubility constant Hcp ([1]; reference: Morrison and Billett (1952)): 1.3e-05 | Henry solubility constant Hcp ([1]; reference: Murray and Riley (1969)): 1.3e-05 | Henry solubility constant Hcp ([1]; reference: Orcutt and Seevers (1937a)): 1.2e-05 | Henry solubility constant Hcp ([1]; reference: Rettich et al. (1981)): 1.3e-05 | Henry solubility constant Hcp ([1]; reference: Rettich et al. (2000)): 1.3e-05 | Henry solubility constant Hcp ([1]; reference: Sherwood et al. (1991)): 1.3e-05 | Henry solubility constant Hcp ([1]; reference: Shoor et al. (1969)): 1.2e-05 | Henry solubility constant Hcp ([1]; reference: Timofejew (1890)): 1.2e-05 | Henry solubility constant Hcp ([1]; reference: Winkler (1891b)): 1.3e-05 | Henry solubility constant Hcp at 273 K [12]: 0.00014 | Henry solubility constant Hcp at 310 K [13]: 1.1e-05

SMILES: CBr [bromomethane]
Henry solubility constant Hcp ([1]; reference: De Bruyn and Saltzman (1997)): 0.0018 | Henry solubility constant Hcp ([1]; reference: Elliott and Rowland (1993)): 0.0017 | Henry solubility constant Hcp ([1]; reference: Glew and Moelwyn-Hughes (1953)): 0.0016 | Henry solubility constant Hcp ([1]; reference: Swain and Thornton (1962)): 0.0015 | Henry solubility constant Hcp at 294 K ([2]; reference: Gan and Yates (1996)): 0.0014 | Henry solubility constant Hcp at 290 K [11]: 0.002

SMILES: Cl/C=C/CCl [trans-1,3-dichloropropene]
Henry solubility constant Hcp ([1]; reference: Leistra (1970)): 0.0081 | Henry solubility constant Hcp at 290 K [11]: 0.015

Henry solubility constant Hcp at 301 K [14]: 0.02 | Henry solubility constant Hcp ([1]; reference: Bruneel et al. (2016)): 0.011 | Henry solubility constant Hcp ([1]; reference: Pollien et al. (2003)): 0.026 | Henry solubility constant Hcp ([1]; reference: Wieland et al. (2015)): 0.024
SMILES: CC(C)CC=O [3-methylbutanal]

Henry solubility constant Hcp at 297 K ([5]; reference: Xu and Kropscott (2012)): 4e-07
SMILES: C[Si]1(C)O[Si](C)(C)O[Si](C)(C)O[Si](C)(C)O[Si](C)(C)O[Si](C)(C)O1 [dodecamethylcyclohexasiloxane]
